Laboratory results: patent US11746124B2, “Chemoselective thiol-conjugation with alkene or alkyne-phosphonamidates” (FORSCHUNGSVERBUND BERLIN E.V., priority 2016, dated 2023)

Tests used:
[1] = Stability of a vinyl phosphonamidate to different pHs by 31P-NMR in aqueous buffers; type: physicochemical; conditions: room temperature
Source text: In a first experiment, Ethyl-N-phenyl-P-vinyl-phosphonamidate was chosen to measure stability.

[2] = Second order rate constant of glutathione addition to EDANS phosphonamidate, fluorescence HPLC; conditions: 0.1 mM amidate, 0.1 mM glutathione, 50 mM NH4HCO3, 1 mM EDTA, pH 8.5, 1% DMF
Method: To study the kinetics of the thiol addition to alkyne-phosphonamidates at low concentrations, a fluorescent EDANS-based phosphonamidate was synthesized as described in chapter 1.1. Addition of glutathione as a model substrate was probed over time by fluorescence HPLC. Peak integration and normalization to unconjugated EDANS as an internal standard was applied to determine the second order rate constant of the reaction. A second order rate constant of 37.32±0.41 I/mol*s was measured.
Glutathione addition to the EDANS-phosphonamidate was conducted at a final concentration of 0.1 mM amidate, 0.1 mM glutathione and 0.02 mM EDANS as an internal standard in 50 mM NH4HCO3-buffer containing 1 mM EDTA at pH 8.5 with 1% DMF. 2.5 μl of a 20 mM stock solution of EDANS-phosphonamidate in DMF was premixed with 488 μl buffer and 5 μl of a 2 mM stock solution of EDANS in a 1:1 mixture of DMF and buffer. The reaction was started by the addition of 5 μl of a 10 mM solution of glutathione in buffer. 10 μl samples were drawn at 0, 15, 30, 60, 120, 240 and 480 minutes and acidified with 190 μl 10 mM NaOAc-Buffer (pH 5.0) and subjected to fluorescence HPLC analysis.

[3] = Rate of glutathione addition to ethyl-N-phenyl alkynyl phosphonamidate, HPLC-UV; conditions: reaction with glutathione, after 15 min at pH 8.5
Method: The rate of the reaction was determined by HPLC. Glutathione was added to a solution of ethyl-N-phenyl alkynyl phosphonamidate in aqueous buffer at slightly basic pH. The reaction was stopped after several time points by the addition of an acidic buffer and analyzed by HPLC-UV, referring to inosine as an internal standard. FIG. 2 refers to the consumption of ethyl-N-phenyl alkynyl phosphonamidate in the reaction with glutathione at pH 8.5. HPLC UV traces were taken at different time points. Experiment was performed in triplicate.

[4] = Hydrolytic decay of the GSH-phosphonamidate conjugate in aqueous buffer, 31P NMR over 24 hours; type: physicochemical
Method: The conjugate could be isolated by semipreparative HPLC under basic conditions as a diastereomeric mixture in a yield of 61%. Having reasonable quantities of this water soluble phosphonamidate-conjugate in hand, studies could be performed in order to determine the hydrolytic properties of the phosphorus-nitrogen bond. For these studies a […] in aqeuous buffer was prepared and the hydrolysis of the phosphonamidate was characterized by monitoring the decay of the conjugate against the standard by means of ^31P NMR over 24 hours.

C=CP(=O)(Nc1ccccc1)OCC (stereo not drawn) [Ethyl-N-phenyl-P-vinyl-phosphonamidate]
stability to different pHs over time ([1]; aqueous buffers): stable over a broad pH range | stability under strong acidic conditions ([1]; strong acidic conditions): P—N-bond cleavage occurred

C#CP(=O)(Nc1ccc(C(=O)NCCNc2cccc3c(S(=O)(=O)O)cccc23)cc1)OCC (stereo not drawn) [EDANS-based phosphonamidate, 5-((2-(O-Ethyl-P-ethynyl-phosphonamidato-N-benzoyl)ethyl)amino)naphthalene-1-sulfonic acid]
second order rate constant of the thiol addition [2]: 37.32±0.41 I/mol*s

C#CP(=O)(Nc1ccccc1)OCC (stereo not drawn) [alkynyl phosphonamidate, Ethyl-N-phenyl-P-ethynyl-phosphonamidate]
conversion of the alkynyl phosphonamidate starting material [3]: more than 95%

CCOP(=O)(/C=C\SC[C@H](NC(=O)CC[C@H](N)C(=O)O)C(=O)NCC(=O)O)Nc1ccccc1 (stereo partly drawn) [GSH-phosphonamidate conjugate, (Ethyl-N-phenyl-P-ethenyl-phosphonamidate)-S-glutathion conjugate]
hydrolytic decay of the conjugate ([4]; slight acidic conditions, 150 mM NH4OAc-buffer, pH 4.76): stable over the duration of the measurement | hydrolytic decay of the conjugate ([4]; strong acidic conditions, 1 M HCL, pH 0.36): rapid decomposition
